Assay results reported in patent US20250179059A1 (The Regents of the University of California, priority 2021, published 2025).

Biological target: T1, human BRD4 bromodomain II (Homo sapiens, UniProt O60885)
T1 construct: human BRD4 bromodomain II [based on Genbank NM_058243, residues 349-460]; host or cells: E. coli
Assay: Bromodomain binding assay (AlphaScreen), BRD4 BDII
Conditions: AlphaScreen assay, Table C2; read-out: BRD4 BDII IC50
Experimental: Bromodomain Binding Assay
The bromodomain binding assay utilizes AlphaScreen technology. Compounds compete with a biotinylated peptide ligand (from histone H4: aa 1-21, K5/K8/K12/K16Ac-biotin) for binding to a hexahistidine (His6)-tagged bromodomain. Peptide binding is detected by fluorescence signal after singlet oxygen energy transfer from peptide-bound AlphaScreen streptavidin-coated donor beads to His6-tagged bromodomain-bound nickel-chelate acceptor beads (PerkinElmer). Briefly, 8 μL 2.5× bromodomain (E. coli expressed, N-terminal His6-tagged human BRD4 bromodomain II [based on Genbank NM_058243, residues 349-460] or N-terminal His6-tagged human BRD4 bromodomain I [residues 44-170]) in reaction buffer (50 mM HEPES [pH 7.5], 100 mM NaCl, 0.05% CHAPS, 0.1% BSA, 1% DMSO) is added to wells of an assay plate (384-well low flange white, flat bottom, polystyrene microplate, Corning #3572; buffer only is added to some wells as a negative control). A compound concentration series (10 concentrations, 3-fold serial dilutions previously prepared in 100% DMSO, or 100% DMSO only negative control) is delivered to the assay plate with an Echo 550 acoustic liquid handler (Labcyte), followed by plate centrifugation and incubation for 30 minutes at room temperature. Then 4 μL 5× biotinylated peptide ligand is added, followed by plate centrifugation and gentle shaking for 30 minutes at room temperature to mix. After this incubation, 4 μL 5× donor beads are added, and the plate is centrifuged, followed by brief gentle shaking to mix. Finally, 4 μL 5× acceptor beads are added, and the plate is centrifuged, followed by gentle shaking for 60 minutes at room temperature in the dark. AlphaScreen signal (excitation/emission: 680 nm/520-620 nm) is detected with an EnSpire multimode plate reader (PerkinElmer). Percentage peptide binding is plotted as a function of concentration, and curve fitting is used to determine competitive compound binding ICsos.

`COc1cc(-c2cccc(-c3cc(Cl)c(N4CCCC4=O)c(Cl)c3)c2O)ccc1NC(C)=O` [Example 165, N-(3″,5″-dichloro-2′-hydroxy-3-methoxy-4″-(2-oxopyrrolidin-1-yl)-[1,1′:3′,1″-terphenyl]-4-yl)acetamide] and `CC(=O)Nc1ccc(-c2cccc(-c3ccc4c(c3)OCCCN4C(C)=O)c2O)cc1F` [Example 104, N-(3′-(5-Acetyl-2,3,4,5-tetrahydrobenzo[b][1,4]oxazepin-8-yl)-3-fluoro-2′-hydroxy-[1,1′-biphenyl]-4-yl)acetamide] cannot be ordered by IC50: > 100 nM for the first, > 100 nM for the second.

First: CC(=O)Nc1ccc(-c2cccc(-c3cccnc3)c2O)cc1F [Example 63, N-(3-Fluoro-2′-hydroxy-3′-(pyridin-3-yl)-[1,1′-biphenyl]-4-yl)acetamide]
Second: CC(=O)Nc1ccc(-c2cccc(-c3cccc(-c4nn[nH]n4)c3)c2O)cc1F [Example 227, N-(3-fluoro-2′-hydroxy-3″-(2H-tetrazol-5-yl)-[1,1′:3′,1″-terphenyl]-4-yl)acetamide]
The IC50 of the first is lower: 10 to 100 nM for the first, > 100 nM for the second.

`CC(=O)Nc1ccc(-c2cccc(-c3ccc(C(C)C)cc3)c2O)cc1F` [Example 74, N-(3-Fluoro-2′-hydroxy-4″-isopropyl-[1,1′:3′,1″-terphenyl]-4-yl)acetamide] and `CC(=O)Nc1ccc(-c2cccc(-c3ccc(NC(C)=O)c(Cl)c3)c2O)cc1F` [Example 46, N,N′-(3-Chloro-3″-fluoro-2′-hydroxy-[1,1′:3′,1″-terphenyl]-4,4″-diyl)diacetamide] cannot be ordered by IC50: > 100 nM for the first, > 100 nM for the second.

`CC(=O)N1CCC(=O)N(C)c2cc(-c3cccc(-c4cc(N5CCNCC5)no4)c3O)ccc21` [Example 38, 5-Acetyl-8-(2-hydroxy-3-(3-(piperazin-1-yl)isoxazol-5-yl)phenyl)-1-methyl-1,3,4,5-tetrahydro-2H-benzo[b][1,4]diazepin-2-one] and `O=C1OCCN1c1ccc(-c2cccc(-c3cc(N4CCNCC4)no3)c2O)cc1` [Example 37, 3-(2′-Hydroxy-3′-(3-(piperazin-1-yl)isoxazol-5-yl)-[1,1′-biphenyl]-4-yl)oxazolidin-2-one 2,2,2-trifluoroacetate] cannot be ordered by IC50: > 100 nM for the first, > 100 nM for the second.

`CC(=O)Nc1c(F)cc(-c2cccc(-c3cccc(N4CCNCC4)c3)c2O)cc1OCC1CC1` [Example 184, N-(3-(cyclopropylmethoxy)-5-fluoro-2′-hydroxy-3″-(piperazin-1-yl)-[1,1′:3′,1″-terphenyl]-4-yl)acetamide] and `CC(=O)Nc1c(F)cc(-c2cccc(-c3cccc(N4CCNCC4)c3)c2O)cc1OC1CC1` [Example 175, N-(3-cyclopropoxy-5-fluoro-2′-hydroxy-3″-(piperazin-1-yl)-[1,1′:3′,1″-terphenyl]-4-yl)acetamide] fall in the same range of IC50: 10 to 100 nM for the first, 10 to 100 nM for the second.

First: CC(=O)Nc1ccc(-c2cccc(-c3cc(N4CCNCC4)no3)c2O)cc1OC1CCCC1 [Example 89, N-(3-(Cyclopentyloxy)-2′-hydroxy-3′-(3-(piperazin-1-yl)isoxazol-5-yl)-[1,1′-biphenyl]-4-yl)acetamide 2,2,2-trifluoroacetate]
Second: CCC(=O)Nc1ccc(-c2cccc(-c3cc(N4CCNCC4)no3)c2O)cc1 [Example 116, N-(2′-Hydroxy-3′-(3-(piperazin-1-yl)isoxazol-5-yl)-[1,1′-biphenyl]-4-yl)propionamide 2,2,2-trifluoroacetate]
The IC50 of the first is lower: 10 to 100 nM for the first, > 100 nM for the second.

`CC(=O)Nc1ccc(-c2cccc(-c3ccc4c(c3)OCCN4C)c2O)cc1F` [Example 144, N-(3-fluoro-2′-hydroxy-3′-(4-methyl-3,4-dihydro-2H-benzo[b][1,4]oxazin-7-yl)-[1,1′-biphenyl]-4-yl)acetamide] and `CC(=O)Nc1ccc(-c2cccc(-c3ccc4occc4c3)c2O)cc1F` [Example 119, N-(3′-(Benzofuran-5-yl)-3-fluoro-2′-hydroxy-[1,1′-biphenyl]-4-yl)acetamide] cannot be ordered by IC50: > 100 nM for the first, > 100 nM for the second.

`CC(=O)Nc1ccc(-c2cccc(-c3ccc(NC(C)=O)c(Oc4ccccc4)c3)c2O)cc1F` [Example 53, N,N′-(3-Fluoro-2′-hydroxy-3″-phenoxy-[1,1′:3′,1″-terphenyl]-4,4″-diyl)diacetamide] and `CC(=O)Nc1ccc(-c2cccc(-c3ccc(Oc4ccccc4)cc3)c2O)cc1F` [Example 90, N-(3-Fluoro-2′-hydroxy-4″-phenoxy-[1,1′:3′,1″-terphenyl]-4-yl)acetamide] cannot be ordered by IC50: > 100 nM for the first, > 100 nM for the second.

First: CC(=O)Nc1ccc(-c2cccc(-c3ccc(NC(C)=O)c(OC4CCCC4)c3)c2O)cc1F [Example 73, N,N′-(3-(Cyclopentyloxy)-3″-fluoro-2′-hydroxy-[1,1′:3′,1″-terphenyl]-4,4″-diyl)diacetamide]
Second: CC(=O)Nc1ccc(-c2cccc(-c3ccc(NC(C)=O)c(F)c3)c2O)cc1C [Example 50, N,N′-(3-Fluoro-2′-hydroxy-3″-methyl-[1,1′:3′,1″-terphenyl]-4,4″-diyl)diacetamide]
The IC50 of the first is higher: > 100 nM for the first, 10 to 100 nM for the second.

`CC(=O)Nc1ccc(-c2cccc(-c3ccc(N4CCNCC4)cc3)c2O)cc1F` [Example 108, N-(3-Fluoro-2′-hydroxy-4″-(piperazin-1-yl)-[1,1′:3′,1″-terphenyl]-4-yl)acetamide] and `CC(=O)Nc1ccc(-c2cccc(-c3cc(N4CCNCC4)ccc3C)c2O)cc1F` [Example 181, N-(3-fluoro-2′-hydroxy-2″-methyl-5″-(piperazin-1-yl)-[1,1′:3′,1″-terphenyl]-4-yl)acetamide] cannot be ordered by IC50: > 100 nM for the first, > 100 nM for the second.

`CC(=O)Nc1ccc(-c2cccc(-c3cccc(N4CCN[C@@H](C)C4)c3)c2O)cc1F` [Example 179, (S)-N-(3-fluoro-2′-hydroxy-3″-(3-methylpiperazin-1-yl)-[1,1′:3′,1″-terphenyl]-4-yl)acetamide] and `CC(=O)Nc1ccc(-c2cccc(-c3cccc(N4CCNC[C@@H]4C)c3)c2O)cc1F` [Example 168, (S)-N-(3-fluoro-2′-hydroxy-3″-(2-methylpiperazin-1-yl)-[1,1′:3′,1″-terphenyl]-4-yl)acetamide] fall in the same range of IC50: 10 to 100 nM for the first, 10 to 100 nM for the second.

Compared with `CC(=O)Nc1ccc(-c2cccc(-c3cccc(N4C[C@@H]5CC[C@H]4CN5)c3)c2O)cc1F` [Example 183, N-(3″-((1S,4S)-2,5-diazabicyclo[2.2.2]octan-2-yl)-3-fluoro-2′-hydroxy-[1,1′:3′,1″-terphenyl]-4-yl)acetamide], `CC(=O)Nc1ccc(-c2cccc(-c3cccc(OC4CCC4)c3)c2O)cc1F` [Example 114, N-(3″-Cyclobutoxy-3-fluoro-2′-hydroxy-[1,1′:3′,1″-terphenyl]-4-yl)acetamide] is higher in IC50: 10 to 100 nM for the first, > 100 nM for the second. The first is the more potent here.

First: CC(=O)Nc1ccc(-c2cccc(-c3cc(N4CCN(C(C)=O)CC4)no3)c2O)cc1 [Example 57, N-(3′-(3-(4-Acetylpiperazin-1-yl)isoxazol-5-yl)-2′-hydroxy-[1,1′-biphenyl]-4-yl)acetamide]
Second: CC(=O)Nc1ccc(-c2cccc(-c3cc(N4CCN(C(C)C)CC4)no3)c2O)cc1F [Example 152, N-(3-fluoro-2′-hydroxy-3′-(3-(4-isopropylpiperazin-1-yl)isoxazol-5-yl)-[1,1′-biphenyl]-4-yl)acetamide 2,2,2-trifluoroacetate]
The IC50 of the first is higher: > 100 nM for the first, 10 to 100 nM for the second.

Compound `CC(=O)Nc1ccc(-c2cccc(-c3cccc(N4CCC5(CCNC5)C4)c3)c2O)cc1F` (stereo not drawn) [Example 221, N-(3-fluoro-2′-hydroxy-3″-(2,7-diazaspiro[4.4]nonan-2-yl)-[1,1′:3′,1″-terphenyl]-4-yl)acetamide] has an IC50 of 1 to 10 nM.
